The values that follow are results of earlier work, collected in patent US20120028943A1, “Medicinal Cream Made Using Fluticasone Propionate And Chitosan And A Process To Make The Same” (APEX LABORATORIES PRIVATE LIMITED, priority 2009, published 2012).

Data set [1] concerns the target T1, human glucocorticoid receptors (Homo sapiens, UniProt P04150).
T1 sequence (P04150 1-777): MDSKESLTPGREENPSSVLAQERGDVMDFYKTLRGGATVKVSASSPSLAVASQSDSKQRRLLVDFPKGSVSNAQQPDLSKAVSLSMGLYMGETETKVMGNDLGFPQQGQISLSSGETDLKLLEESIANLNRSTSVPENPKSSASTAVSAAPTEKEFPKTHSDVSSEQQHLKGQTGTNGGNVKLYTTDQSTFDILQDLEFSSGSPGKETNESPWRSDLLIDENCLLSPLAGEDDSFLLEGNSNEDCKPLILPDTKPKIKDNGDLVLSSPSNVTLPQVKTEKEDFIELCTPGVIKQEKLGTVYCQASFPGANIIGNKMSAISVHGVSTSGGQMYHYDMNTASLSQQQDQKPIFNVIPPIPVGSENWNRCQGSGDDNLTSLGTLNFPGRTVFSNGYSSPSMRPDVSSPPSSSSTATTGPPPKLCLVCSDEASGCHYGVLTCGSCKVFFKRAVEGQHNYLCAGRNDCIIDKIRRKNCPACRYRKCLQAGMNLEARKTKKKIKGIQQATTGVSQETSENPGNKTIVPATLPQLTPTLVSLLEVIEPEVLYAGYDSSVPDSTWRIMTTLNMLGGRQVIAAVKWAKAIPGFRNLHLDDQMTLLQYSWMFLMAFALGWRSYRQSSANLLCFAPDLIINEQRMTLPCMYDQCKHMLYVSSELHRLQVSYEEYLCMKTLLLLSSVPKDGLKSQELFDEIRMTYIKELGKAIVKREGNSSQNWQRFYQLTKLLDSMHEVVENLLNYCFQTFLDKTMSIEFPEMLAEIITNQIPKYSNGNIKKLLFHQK

Data set [2] concerns the target T1, human glucocorticoid receptors. Conditions: in vitro.
Assay in data set [3]: not given
The source holds these as a separate data set.

Data set [4] relates to HPA (hypothalamic-pituitary-adrenal)-axis. Conditions: after dermal administration.
For the next data set, the system named is human plasma proteins. Particulars: averaged.
Another data set concerns the target T2, human transcortin (Homo sapiens, UniProt P08185).
T2 sequence (P08185 23-405): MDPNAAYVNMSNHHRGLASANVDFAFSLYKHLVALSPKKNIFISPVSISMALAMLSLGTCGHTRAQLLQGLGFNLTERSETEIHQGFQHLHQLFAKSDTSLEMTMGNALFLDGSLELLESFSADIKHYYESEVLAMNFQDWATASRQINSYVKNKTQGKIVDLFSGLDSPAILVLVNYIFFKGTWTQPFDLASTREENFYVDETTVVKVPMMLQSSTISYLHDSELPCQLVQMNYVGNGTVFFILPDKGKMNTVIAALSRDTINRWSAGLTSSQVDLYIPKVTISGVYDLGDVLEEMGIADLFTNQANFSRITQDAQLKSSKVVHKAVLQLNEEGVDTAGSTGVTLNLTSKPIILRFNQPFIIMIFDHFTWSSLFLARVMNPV

Another data set concerns the target cytochrome P450 3A4 (Homo sapiens, UniProt P08684). Particulars: liver.

Sequence of cytochrome P450 3A4 (P08684 whole entry): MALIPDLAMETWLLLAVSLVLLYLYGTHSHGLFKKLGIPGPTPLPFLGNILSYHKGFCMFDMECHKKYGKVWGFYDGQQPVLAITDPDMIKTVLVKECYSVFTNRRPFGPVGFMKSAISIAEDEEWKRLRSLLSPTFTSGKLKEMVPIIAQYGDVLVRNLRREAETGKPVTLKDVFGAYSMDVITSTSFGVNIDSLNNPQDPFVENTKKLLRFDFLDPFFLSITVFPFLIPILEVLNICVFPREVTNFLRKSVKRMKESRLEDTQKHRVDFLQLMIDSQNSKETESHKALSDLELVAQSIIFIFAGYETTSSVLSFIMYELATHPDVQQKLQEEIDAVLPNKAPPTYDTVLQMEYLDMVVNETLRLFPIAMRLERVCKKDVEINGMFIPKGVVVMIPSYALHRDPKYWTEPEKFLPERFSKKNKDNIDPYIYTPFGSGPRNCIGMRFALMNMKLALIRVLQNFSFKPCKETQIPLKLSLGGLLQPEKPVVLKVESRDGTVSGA

As to `CCC(=O)O[C@]1(C(=O)SCF)[C@H](C)C[C@H]2[C@@H]3C[C@H](F)C4=CC(=O)C=C[C@]4(C)[C@@]3(F)[C@@H](O)C[C@@]21C` [Fluticasone propionate, S-(fluoromethyl)6α,9-difluoro-11β-17-dihydroxy-16α-methyl-3-oxoandrosta-1,4-diene-17β-carbothioate, 17-propionate], the “solubility in 95% ethanol” value (95% ethanol) is listed as “slightly soluble”. Also, for the setting “dimethyl sulfoxide”, the “solubility in dimethyl sulfoxide” value was “freely soluble”. For the same molecule, the solubility in dimethylformamide result (dimethylformamide) is “freely soluble”. Where the note is “methanol”, the solubility in methanol entry is recorded as “slightly soluble”. Besides, the solubility in water result (water) is recorded as “practically insoluble”. Besides, the “selectivity to the glucocorticoid receptor” value in data set [1] was “high degree of selectivity”. Moreover, the “affinity for human glucocorticoid receptors” value in data set [1] (in vitro) is given as “strong affinity”. Also, in data set [2], the “agonist activity at human glucocorticoid receptors” value is recorded as “agonist activity”. For the same molecule, the topical anti-inflammatory potency entry in data set [3] is recorded as “high”. In data set [4], the HPA-axis suppressive activity entry is “low”. The “percentage bound to human plasma proteins” value with human plasma proteins is given as 91%. Moreover, the binding to erythrocytes result with erythrocytes was “weakly and reversibly bound”. In addition, the “binding to human transcortin” value at human transcortin is recorded as “not significantly hound”. For the same molecule, at cytochrome P450 3A4, the metabolism result was “metabolized in the liver by cytochrome P450 3A4-mediated hydrolysis”.
